Data from patent publication US9422308B2, “Derivatives of docosahexaenoylethanolamide and uses thereof” (The United States of America, as represented by the …, priority 2012, dated 2016).

Columns and labels:
[1] = system: cortical neurons; assay: neurite growth of embryonic mouse neurons (total neurite length/neuron, MAP2 immunostaining); format: cell-based
Procedure: To obtain embryonic mouse neurons for analysis, pregnant female mice were killed by cervical dislocation after exposure to CO2 inhalation. Embryonic neurons were prepared from E18 or P0 mouse hippocampi or cortex and cultured as described previously (Calderon and Kim, J. Neurochem., 90(4):979-88 (2004), errata in J Neurochem., September; 90(6):1540 (2004)), with slight modification. Briefly, hippocampi or cotices were dissected and dissociated by a method using either 0.25% trypsin (Gibco Invitrogen Corporation, Grand Island, N.Y.) in Hank's balanced salt solution (HBSS) or papain (20-30 U/mL) in dissociation media containing cysteine at 37° C. for 15 min. After the dissociation solution was aspirated off, cells were washed with same volume of HBSS, suspended in neurobasal medium (Gibco) containing 2% B27 supplement (Gibco), 1% glutamine/glutamax mix (1:4) (Gibco), 100 U/ml penicillin (Gibco) and 100 μg/ml streptomycin (Gibco), and seeded on poly-D-lysine chambered slides (Lab-Tek, Naperville, Ill.) at a density of 30,000 cells/cm^2. On the second day after seeding, the cells were treated with fatty acids, synaptamide or one of Compounds 1-50 for 48 h. Docosahexaenoic acid (DHA) and oleic acid (OA) were complexed with fatty acid-free bovine serum albumin (BSA; Sigma, St Louis, Mo.) in the presence of α-tocopherol (Sigma) under an argon atmosphere and darkness to prevent oxidation of the fatty acids. The mixture was mixed with fresh Neurobasal medium containing B27 supplement, glutamine/glutamax mix and antibiotics. Final concentrations of α-tocopherol and BSA in the culture medium were 40 μM and 0.01%, respectively. Alternatively, DHA, OA, synaptamide, or one of Compounds 1-50 were dissolved in DMSO and applied directly together with α-tocopherol. In such case, the final concentration of DMSO is less than 0.005%. All stock solutions were aliquoted under argon and stored at −70° C.
Cells were fixed with […] (Sigma) in PBS (pH 7.4) for 30 min. After permeabilization with 0.1% Triton X-100 (Sigma), cells were blocked for 1 h at 37° C. with PBS containing 10% goat serum (Gibco), and then incubated with the primary antibody against microtubule-associated protein (MAP2, mouse monoclonal 1:250; Sigma). After washing with PBS, cells were incubated with the corresponding Cy2-, Cy3-conjugated secondary antibody (Jackson Immunoresearch Laboratories Inc., West Grove, Pa.). For the nuclear staining, 0.06% 4,6-Diamidino-2-Phenylindole (Sigma) was used. After immunostaining, images were collected using an inverted motorized 1×81 Olympus (Melville, N.Y.) and the neurite length was analyzed with Metamorph software (Molecular Devices Corporation, Downingtown, Pa.). To minimize bias, neurons were evaluated blindly without the knowledge of sample identity. Four to six fields/well were chosen at random and only non-clustered neurons were evaluated to ensure the precision of the measurements. From each well, over 100 neurons were evaluated at 20× magnification for total neurite length/neuron. The data were obtained from triplicate wells and the experiments were repeated at least three times.
FIG. 2 provides graphical results of the data shown in Table 2, expressed as total neurite length per neuron. FIG. 3 provides graphical results of these experiments for compounds 11-50 (having designations as provided in Table 1, above), expressed as relative neurite length as compared to untreated controls. FIG. 4 provides graphical results of these experiments for compounds 1-10 (having designations as provided in Table 1, above), as applied to hippocampal neurons.
An additional assay was performed in which Compounds (A8), 4(A10), and 7(A9) were applied at varying dosages (from 10^−5 nM to 10 nM; 10^−5 nM, 10^−4 nM, 10^−2 nM, 0.1 nM, 1 nM, and 10 nM) as compared to DHA, synaptamide, and oleic acid. Neurite growth was measured at each dosage. Results of this assay are provided at FIG. 1.

[2] = biological target: T1, FAAH (Homo sapiens, UniProt O00519); assay: time course FAAH enzyme assay; format: in vitro ADME; settings: for % remaining: 1 mM, pH 9
T1 sequence (O00519 1-579): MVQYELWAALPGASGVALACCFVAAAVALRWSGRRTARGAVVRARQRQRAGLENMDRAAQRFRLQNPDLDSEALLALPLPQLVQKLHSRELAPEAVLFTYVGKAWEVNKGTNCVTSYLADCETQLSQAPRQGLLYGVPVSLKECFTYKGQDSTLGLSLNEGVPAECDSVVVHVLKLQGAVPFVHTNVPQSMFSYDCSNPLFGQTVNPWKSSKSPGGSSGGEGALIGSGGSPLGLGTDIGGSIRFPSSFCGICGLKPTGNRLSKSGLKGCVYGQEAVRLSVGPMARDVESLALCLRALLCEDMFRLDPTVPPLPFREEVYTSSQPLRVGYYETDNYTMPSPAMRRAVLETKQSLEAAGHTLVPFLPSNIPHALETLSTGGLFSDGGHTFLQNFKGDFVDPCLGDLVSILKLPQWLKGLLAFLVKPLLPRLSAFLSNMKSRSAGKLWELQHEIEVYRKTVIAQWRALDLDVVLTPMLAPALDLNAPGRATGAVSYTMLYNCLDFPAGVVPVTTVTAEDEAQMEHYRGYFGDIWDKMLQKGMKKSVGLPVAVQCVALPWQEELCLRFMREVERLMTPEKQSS
Procedure: Method development: The signal was optimized for each compound by ESI positive or negative ionization mode. A MS2 SIM scan was used to optimize the precursor ion and a product ion analysis was used to identify the best fragment for analysis and to optimize the collision energy.
Analysis: Samples were analyzed by LC/MS/MS using a API 3000 coupled with an Shimadzu HPLC and a CTC PAL chilled autosampler, all […] controlled by Analyst software (ABI). After separation on a C18 reverse phase HPLC column (Agilent, Waters, or equivalent). Mobile phase A was 0.1% AcOH in water. Mobile phase B was 0.1% AcOH in methanol. The flow rate was 0.6 mL/min. The gradient program included a 0.5 min hold at 30% B (the starting conditions), followed by a gradient to 100% B over 2.5 min and a 1 min hold at 100% B. The column was then returned to starting conditions and equilibrated over 1.25 min.
Assay Protocol: Assays were performed at 37° C. at pH=9.0 and involved the use of 0.1 U of FAAH. […] Reaction was terminated after an appropriate time by using protein precipitation treatment with acetonitrile (3:1, v/v).

[3] = system: FAAH KO mice; assay: beam walk test after traumatic brain injury by controlled cortical impact; format: in vivo; settings: one-time i.p. 25 mg/kg at 15 min after TBI (CCI), from the day 4 after TBI, FIG. 8
Procedure: For the beam walk test, mice were trained to traverse a narrow beam before injury caused by controlled cortical impact (CCI), and the number of hind foot slips after injury was observed over the course of recovery.
A8 has increased resistance to FAAH in comparison to synaptamide but still does show some susceptibility to hydrolysis by FAAH. The effects of A8 in FAAH KO mice were tested by one-time i.p. administration of A8 (25 mg/kg) at 15 min after traumatic brain injury (TBI) inflicted by controlled cortical impact (CCI).

CC/C=C\C/C=C\C/C=C\C/C=C\C/C=C\C/C=C\CCC(=O)NCC(C)(C)O [Compound 1, (4Z,7Z,10Z,13Z,16Z,19Z)—N-(2-hydroxy-2-methylpropyl)docosa-4,7,10,13,16,19-hexaenamide]
Neurite Length/Neuron (mean) ([1]; cortical neurons, 10 nM (FIG. 2), 48 h): 41.3 μm | effect with respect to cortical neurite growth as compared to DHA ([1]; cortical neurons, FIGS. 1, 2): superior effect | dosage at which activity is exhibited as compared to DHA and synaptamide ([1]; dosages 10^-5 nM to 10 nM, FIG. 1): activity at significantly lower dosages | susceptibility to hydrolysis by FAAH [2]: less susceptible to hydrolysis by FAAH than synaptamide or AEA | % remaining ([2]; 0 h): 99% | % remaining ([2]; 0.5 h): 101% | % remaining ([2]; 1 h): 85% | TBI-induced behavioral deficit (beam walk test, hind foot slips) [3]: significant improvement
